Source: patent US20250289812A1, “COMPOUND FOR TREATING THROMBOTIC DISEASES” (SHANGHAI INSTITUTE OF MATERIA MEDICA, CHINESE ACADEMY OF …, priority 2020, published 2025)

Assays:
[1] = target: Src kinase SH3 domain protein (Homo sapiens (Human), UniProt P12931); assay: Surface plasmon resonance (SPR) determination of dissociation constants with SH3 protein; format: binding; conditions: SH3 protein coupled to CM5 chip
Procedure: 1. Experimental method: Surface plasmon resonance test was carried out on BIACORE T200 instrument (GE Company). Fresh purified grade Src kinase SH3 domain protein (concentration 2 mg/ml) was diluted to 0.1 mg/ml with 10 mM CH3COONa (pH 4.2) and then SH3 protein was coupled to the CM5 chip by standard amino coupling methods. The compounds of the invention were diluted in a gradient using a buffer solution (20 mM Tris-HCl, PH 8.0, 100 mM NaCl) for 60 seconds and dissociated for 120 seconds at a flow rate of […], respectively. The changes in response values over time were recorded and analyzed by the BIA Evaluation Software (GE Healthcare) program to obtain the dissociation constants KD for the different compounds with SH3 protein.
2. Experimental results and conclusions: The dissociation constants KD of different compounds and SH3 protein were described in Table 2, and the surface plasmon resonance (SPR) experimental results of some compounds were shown in FIG. 1.

[2] = tested on: platelets on solid phase fibrinogen; assay: Effect of compound on platelet stretching on solid phase fibrinogen; format: cell-based; conditions: 1 h, washed platelets, incubated 60 min at 37° C., read-out: Concentration range for compounds that inhibit platelet stretching on fibrinogen
Procedure: 1. Experimental method: Firstly, 50 μl fibrinogen (0.1M, diluted with pH 8.3 sodium bicarbonate, 20 μg/ml) was added to 96-well plate, and coated overnight at 4° C. After being washed by PBS for 3 times in the morning, sealed with bovine serum albumin (20 mg/ml) at 37° C. for 60 min, then 100 μl of washed platelet suspension was taken, and added into compounds in each group to make the final concentration 250 μM, and incubated at 37° C. for 60 min. 50 μl of incubated platelets were added to 96-well plate, adhered in a temperature box at 37° C. for 60 min, unadhered platelets were removed by PBS washing for 3 times, and adhered platelets were stably fixed with 4% paraformaldehyde, and washed with PBS for 3 times. Then the platelet membrane was perforated with 0.5% Triton X-100, and then the platelet was stained with 0.5 μg/ml phalloidin-rhodamine for 60 min at 37° C. and washed 3 times (10 min each) with PBS.
2. Experimental results and conclusions: The concentration of different compounds on platelet stretching on fibrinogen was shown in Table 3, and the inhibitory effect of some compounds on platelet stretching was shown in FIG. 2.

Chain of Src kinase SH3 domain protein (P12931 whole entry, looked up, the tested form may be a part): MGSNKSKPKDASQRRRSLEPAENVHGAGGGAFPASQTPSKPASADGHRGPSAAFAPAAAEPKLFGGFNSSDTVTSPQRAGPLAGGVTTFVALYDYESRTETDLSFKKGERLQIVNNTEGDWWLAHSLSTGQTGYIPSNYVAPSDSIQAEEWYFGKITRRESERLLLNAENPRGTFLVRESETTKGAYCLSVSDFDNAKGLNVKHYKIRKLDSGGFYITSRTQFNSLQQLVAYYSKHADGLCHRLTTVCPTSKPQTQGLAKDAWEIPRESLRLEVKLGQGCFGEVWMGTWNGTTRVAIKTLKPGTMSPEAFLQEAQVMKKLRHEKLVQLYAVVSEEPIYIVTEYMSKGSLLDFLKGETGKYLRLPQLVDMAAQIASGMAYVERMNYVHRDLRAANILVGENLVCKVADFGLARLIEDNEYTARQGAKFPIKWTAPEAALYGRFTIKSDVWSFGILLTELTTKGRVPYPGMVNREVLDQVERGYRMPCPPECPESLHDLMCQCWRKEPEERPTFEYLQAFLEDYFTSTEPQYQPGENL

| Kd [1] [µM] | Compound | minimal effective concentration [2] [µM] |
| --- | --- | --- |
| < 1 | CCOC(=O)c1c(CNC(=N)N)n(C)c2ccc(OC)nc12 [SYY-C001] | 10 to 100 |
| 1 to 10 | CCOC(=O)c1c(CNC(=N)N)n(C)c2ncccc12 [SYY-C002] | 100 to 250 |
| < 1 | CCOC(=O)c1c(CNC(=N)N)n(C)c2ncc(OC)cc12 [SYY-C003] | 10 to 100 |
| 1 to 10 | COc1ccc2c(n1)c(C#N)c(CNC(=N)N)n2C [SYY-C004] | 100 to 250 |
| 1 to 10 | COc1ccc2c(n1)c(C(N)=O)c(CNC(=N)N)n2C [SYY-C005] | 100 to 250 |
| < 1 | CCOC(=O)c1c(CNC(=N)N)n(C)c2ccc(O)nc12 [SYY-C006] | 10 to 100 |
| < 1 | CCOC(=O)c1c(CNC(=N)N)n(C)c2ccc(OC3CCCC3)nc12 [SYY-C007] | 10 to 100 |
| 10 to 100 | CCOC(=O)c1c(CNC(=N)N)n(C)c2cc(Br)c(OC3CCCC3)nc12 [SYY-C008] | 100 to 250 |
| < 1 | CCOC(=O)c1c(CNC(=N)N)n(C)c2ncc(O)cc12 [SYY-C009] | 10 to 100 |
| 10 to 100 | CCOC(=O)c1c(CNC(=N)N)n(C)c2ncc(OC3CCCC3)cc12 [SYY-C010] | 10 to 100 |
| < 1 | CCOC(=O)c1c(CNC(=N)N)n(C)c2cc(Br)cnc12 [SYY-C014] | 10 to 100 |
| < 1 | CCOC(=O)c1c(CNC(=N)N)n(C)c2cc(Br)ccc12 [SYY-C015] | 10 to 100 |
| 10 to 100 | CCOC(=O)c1c(CNC(=N)N)n(C)c2ccccc12 [SYY-C016] | 10 to 100 |
| < 1 | CCOC(=O)c1c(CNC(=N)N)n(C)c2ccc(Br)cc12 [SYY-C017] | 10 to 100 |
| 1 to 10 | CCOC(=O)c1c(CNC(=N)N)n(C)c2nc(Cl)ccc12 [SYY-C020] | 100 to 250 |
| 1 to 10 | CCOC(=O)c1c(CNC(=N)N)n(C)c2cc(Br)ncc12 [SYY-C022] | 100 to 250 |
| 10 to 100 | CCOC(=O)c1c(CNC(=N)N)n(C)c2cc(-c3ccccc3)ccc12 [SYY-C023] | 10 to 100 |
| < 1 | CCOC(=O)c1c(CNC(=N)N)n(C)c2cc(C3=CCCC3)ccc12 [SYY-C024] | 10 to 100 |
| < 1 | CCOC(=O)c1c(CNC(=N)N)n(C)c2cc(C3CCCC3)ccc12 [SYY-C025] | 10 to 100 |
| 1 to 10 | CCOC(=O)c1c(CNC(=N)N)n(C)c2cccnc12 [SYY-C026] | 100 to 250 |
| < 1 | CCOC(=O)c1c(CNC(=N)N)n(C)c2ccc(-c3ccccc3)cc12 [SYY-C028] | 10 to 100 |

| Kd [1] [µM] | Compound | minimal effective concentration [2] [µM] |
| --- | --- | --- |
| < 1 | CCOC(=O)c1c(CNC(=N)N)n(C)c2c1ccc1ccccc12 [SYY-C029] | 10 to 100 |
| 10 to 100 | CCOC(=O)c1c(CNC(=N)N)n(-c2ccccc2)c2ccccc12 [SYY-C030] | 100 to 250 |
| < 1 | CCOC(=O)c1c(CSC(=N)N)n(-c2ccccc2)c2ccccc12 [SYY-C031] | 10 to 100 |
| < 1 | CCNC(=N)NCc1c(C(=O)OCC)c2nc(OC)ccc2n1C [SYY-C032] | 10 to 100 |
| 1 to 10 | CCOC(=O)c1c(CNC(=N)N)n(C)c2ccncc12 [SYY-C034] | 100 to 250 |
| 1 to 10 | CCOC(=O)c1c(CNC(=N)N)n(C)c2cnccc12 [SYY-C035] | 100 to 250 |
| – | COc1cnc2c(c1)c(C(N)=O)c(CNC(=N)N)n2C [SYY-C036] | 10 to 100 |
| 1 to 10 | CCOC(=O)c1c(CNC(=N)N)n(C)c2ccc(C3=CCCC3)cc12 [SYY-C037] | 100 to 250 |
| < 1 | CCOC(=O)c1c(CNC(=N)N)n(C)c2ccc(C3CCCC3)cc12 [SYY-C039] | 10 to 100 |
| < 1 | CCOC(=O)c1c(CNC(=N)N)n(C)c2cc(-c3cccc4ccccc34)ccc12 [SYY-C040] | 10 to 100 |
| 10 to 100 | CCOC(=O)c1c(CNC(=N)N)n(C)c2cc(-c3ccc4ccccc4c3)ccc12 [SYY-C041] | 100 to 250 |
| 1 to 10 | CCOC(=O)c1c(CSC(=N)N)n(C)c2cc(-c3cccc4ccccc34)ccc12 [SYY-C042] | 10 to 100 |
| 1 to 10 | CCOC(=O)c1c(CSC(=N)N)n(C)c2cc(-c3ccc4ccccc4c3)ccc12 [SYY-C043] | 100 to 250 |
| < 1 | CCOC(=O)c1c(CSC(=N)N)n(C)c2cc(Cc3ccccc3)ccc12 [SYY-C045] | 10 to 100 |
| 10 to 100 | CCOC(=O)c1c(CNC(=N)N)n(C)c2cc(C3=CCCCCC3)ccc12 [SYY-C046] | 100 to 250 |
| < 1 | CCOC(=O)c1c(CNC(=N)N)n(C)c2cc(C3CCCCCC3)ccc12 [SYY-C047] | 10 to 100 |
| 10 to 100 | CCOC(=O)c1c(CNC(=N)N)n(C)c2cc(C3=CCCCC3)ccc12 [SYY-C048] | 10 to 100 |
| < 1 | CCOC(=O)c1c(CNC(=N)N)n(C)c2cc(C3CCCCC3)ccc12 [SYY-C049] | 10 to 100 |
| < 1 | CCOC(=O)c1c(CSC(=N)N)n(C)c2cc(C3CCCCC3)ccc12 [SYY-C050] | 10 to 100 |
| 1 to 10 | CCOC(=O)c1c(CSC(=N)N)n(C)c2cc(C3=CCCCC3)ccc12 [SYY-C051] | 100 to 250 |
| 1 to 10 | CCOC(=O)c1c(CSC(=N)N)n(C)c2cc(C3=CCCCCC3)ccc12 [SYY-C052] | 100 to 250 |

| Kd [1] [µM] | Compound | minimal effective concentration [2] [µM] |
| --- | --- | --- |
| < 1 | CCOC(=O)c1c(CSC(=N)N)n(C)c2cc(C3CCCCCC3)ccc12 [SYY-C053] | 10 to 100 |
| < 1 | CCOC(=O)c1c(CNC(=N)N)n(C)c2cc(OC3CCCC3)ccc12 [SYY-C054] | 10 to 100 |
| < 1 | CCOC(=O)c1c(CSC(=N)N)n(C)c2cc(C3CCCc4ccccc43)ccc12 (stereo not shown) [SYY-C055] | 10 to 100 |
| 10 to 100 | CCOC(=O)c1c(CSC(=N)N)n(C)c2cc(C3CCC(F)(F)CC3)ccc12 [SYY-C056] | 100 to 250 |
| < 1 | CCOC(=O)c1c(CNC(=N)N)n(C)c2cc(C3CCCc4ccccc43)ccc12 (stereo not shown) [SYY-C057] | 10 to 100 |
| 10 to 100 | CCOC(=O)c1c(CSC(=N)N)n(C)c2cc(OC3CCCC3)ccc12 [SYY-C058] | 100 to 250 |
| < 1 | CCOC(=O)c1c(CSC(=N)N)n(C)c2cc(Oc3ccccc3)ccc12 [SYY-C059] | 10 to 100 |
| < 1 | CCOC(=O)c1c(CNC(=N)N)n(C)c2cc(C3CCC(F)(F)CC3)ccc12 [SYY-C060] | 10 to 100 |
| 10 to 100 | CCOC(=O)c1c(CSC(=N)N)n(C)c2cc(OC3CCCCC3)ccc12 [SYY-C061] | 10 to 100 |
| < 1 | CCOC(=O)c1c(CSC(=N)N)n(C)c2ccc3ccccc3c12 [SYY-C062] | 10 to 100 |
| < 1 | CCOC(=O)c1c(CSC(=N)N)n(C)c2cc(C3CC4CCC3C4)ccc12 (stereo not shown) [SYY-C063] | 10 to 100 |
| 10 to 100 | CCOC(=O)c1c(CNC(=N)N)n(C)c2ccc(-c3ccc4ccccc4c3)cc12 [SYY-C065] | 10 to 100 |
| < 1 | CCOC(=O)c1c(CNC(=N)N)n(C)c2cc(-c3ccnc4ccccc34)ccc12 [SYY-C066] | 10 to 100 |
| < 1 | CCOC(=O)c1c(CNC(=N)N)n(C)c2cc(-c3cccc4ncccc34)ccc12 [SYY-C067] | 10 to 100 |
| 1 to 10 | CCOC(=O)c1c(CNC(=N)N)n(C)c2cc(C3=CCCc4ccccc43)ccc12 [SYY-C068] | 100 to 250 |
| – | CCOC(=O)c1c(CNC(=N)N)n(C)c2cc(C3CC4CCC3C4)ccc12 (stereo not shown) [SYY-C069] | 10 to 100 |
| < 1 | CCOC(=O)c1c(CNC(=N)N)n(C)c2ccc(-c3cccc4ccccc34)cc12 [SYY-C070] | 10 to 100 |
| < 1 | CCOC(=O)c1c(CNC(=N)N)n(C)c2ccc(C3=CCCc4ccccc43)cc12 [SYY-C071] | 10 to 100 |
| 1 to 10 | CCOC(=O)c1c(CNC(=N)N)n(C)c2cc(-c3ccc(C)c4ccccc34)ccc12 [SYY-C072] | 10 to 100 |

| Compound | Kd [1] [µM] | minimal effective concentration [2] [µM] |
| --- | --- | --- |
| CCOC(=O)c1c(CNC(=N)N)n(C)c2cc(-c3cccc4ccc(F)cc34)ccc12 [SYY-C094] | < 1 | – |
